Target: T1, human IBAT (Homo sapiens, UniProt Q12908)
T1 construct: Bases 599 to 1645 correspond to the complete coding region of human IBAT; expressed in transfected cells
T1 sequence (Q12908 1-348): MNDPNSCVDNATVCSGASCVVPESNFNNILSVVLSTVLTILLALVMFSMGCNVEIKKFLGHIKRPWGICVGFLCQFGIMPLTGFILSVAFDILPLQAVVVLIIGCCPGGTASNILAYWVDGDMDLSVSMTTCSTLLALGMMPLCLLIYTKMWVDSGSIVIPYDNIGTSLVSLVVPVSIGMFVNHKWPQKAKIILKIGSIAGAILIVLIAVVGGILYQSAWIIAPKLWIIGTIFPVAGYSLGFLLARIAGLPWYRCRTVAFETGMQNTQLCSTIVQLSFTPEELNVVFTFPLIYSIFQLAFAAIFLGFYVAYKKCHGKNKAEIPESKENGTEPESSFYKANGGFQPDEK
Experiment: In vitro IBAT inhibition assay: uptake of [3H]-taurocholic acid into CHO-hIBAT cells
Type: cell-based
Settings: taurocholic acid 10 μM, 60 min at room temperature, read-out: IC-50 (human IBAT)
From the text: Preparation and Procedure for the In Vitro IBAT Inhibition Assay:
• 1. Cloning of an Expression Vector for Human IBAT
The cDNA (complementary deoxyribonucleic acid) of human IBAT was cloned by standard methods of molecular biology as described for example in Molecular Cloning: A Laboratory Manual by Joseph Sambrook and David Russell, and introduced into the pcDNA1 vector from Invitrogen. […] Bases 599 to 1645 correspond to the complete coding region of human IBAT. • 2. Preparation of a Recombinant Cell Line with Constitutive Expression of Human IBAT
The expression vector for human IBAT was introduced by stable transfection into CHO (chinese hamster ovary) cells. […]
CHO-hIBAT cells were seeded in a concentration of 40 000 cells per well in poly-D-lysine-coated 96-well plates in cell culture medium and cultured for 24 h. […] Finally, 100 μl of scintillation fluid were added to each well, and the radioactivity taken up into the cells was determined in a MicroBeta Scintillation Microplate Reader from Wallac.
The half-maximum inhibitory effect of the test compound (IC50 value, inhibitory concentration 50) was determined in the following way: • 1. […] This is the measurement in the absence of substance, measured in sodium-containing transport assay buffer. • 2. […] This is the measurement in the absence of substance, measured in sodium-free transport assay buffer. • 3. […]

SMILES	IC50
CCCC[C@]1(CC)CS(=O)(=O)c2ccc(N(C)C)cc2[C@@H](c2cccc(NC(=O)N[C@@H]3[C@@H](OS(=O)(=O)O)[C@H](OCc4ccccc4)[C@@H](OS(=O)(=O)O)[C@H](OCc4ccccc4)[C@H]3OS(=O)(=O)O)c2)[C@H]1O [Example 2]	16 nM
CCCC[C@]1(CC)CS(=O)(=O)c2ccc(N(C)C)cc2[C@@H](c2cccc(NC(=O)N[C@@H]3[C@@H](O)[C@H](OCc4ccccc4)[C@@H](O)[C@H](OCc4ccccc4)[C@H]3O)c2)[C@H]1O [Example 1]	4.2 nM
